Results published in patent US6329531A, “Optical diagnostic agents for diagnosis of neurodegenerative diseases by means of near infrared radiation (NIR radiation)” (Schering AG, priority 1996, dated 2001).
Counter-ions that a name gives are not always drawn.

Test: Absorption and fluorescence maxima of the dye in water
Type: physicochemical
Conditions: H2O

In the case of CC1(C)C(=CC=CC=CC=CC2=[N+](CCCCS(=O)(=O)[O-])c3ccc(C(=O)N[C@H]4C(O)O[C@H](CO)[C@@H](O)[C@@H]4OS(=O)(=O)O)cc3C2(C)C)N(CCCCS(=O)(=O)O)c2ccccc21 (stereo partly drawn) [Example 2, Bis-1,1'-(4-Sulfobutyl)indotricarbocyanine-5-carboxylic acid-α-D-glucosamide-3"-sulfate, disodium salt], the “λMax.absorption (H2 O)” value is reported as 745 nm and the “λMax.fluorescence (H2 O)” value is reported as 779 nm.
In the case of CC1(C)C(=CC=CC=CC=CC2=[N+](CCCCS(=O)(=O)[O-])c3ccc(C(=O)NC4OC(CO)C(OC5OC(CO)C(OC6OC(CO)C(O)C(O)C6O)C(O)C5O)C(O)C4O)cc3C2(C)C)N(CCCCS(=O)(=O)O)c2ccccc21 (stereo not shown) [Example 5], the “λMax.absorption (H2 O)” value is reported as 748 nm and the “λMax.fluorescence (H2 O)” value is reported as 779 nm.
For CC1(C)C(=CC=CC=CC=CC2=[N+](CCCCS(=O)(=O)[O-])c3ccc(C(=O)NCC(COS(=O)(=O)O)OS(=O)(=O)O)cc3C2(C)C)N(CCCCS(=O)(=O)O)c2ccccc21 (stereo not shown) [Example 1, N-(2,3-disulfato)propyl-1,1'-bis-(4-sulfobutyl)indotricarbocyanine-5-carboxylic acid amide, trisodium salt], the “λMax.absorption (H2 O)” value was 746 nm and the “λMax.fluorescence (H2 O)” value was 780 nm.
With CC1(C)C(=CC=CC=CC=CC2=[N+](CCCCS(=O)(=O)[O-])c3ccc(C(=O)N[C@H]4C(O)O[C@H](CO)[C@H](O)[C@@H]4O[C@@H]4O[C@H](C(=O)O)[C@@H](O)[C@H](O)[C@H]4O)cc3C2(C)C)N(CCCCS(=O)(=O)[O-])c2ccccc21.[Na+] (stereo partly shown) [Example 4, N-Chondrosin-bis-1,1'-(4-sulfobutyl)indotricarbocyanine-5-carboxylic acid amide, sodium salt] the “λMax.absorption (H2 O)” value was 746 nm and the “λMax.fluorescence (H2 O)” value was 779 nm.
In the case of CC1(C)C(=CC=CC=CC=CC2=[N+](CCCCS(=O)(=O)[O-])c3ccc(C(=O)N[C@H]4C(O)O[C@H](CO)[C@@H](O)[C@@H]4OS(=O)(=O)O)cc3C2(C)C)N(CCCCS(=O)(=O)O)c2ccc(C(=O)N[C@H]3C(O)O[C@H](CO)[C@@H](O)[C@@H]3OS(=O)(=O)O)cc21 (stereo partly drawn) [Example 3, Bis-1,1'-(4-Sulfobutyl)indotricarbocyanine-5,5'-dicarboxylic acid-di-α-D-glucosamide-di-3"-sulfate, trisodium salt], the “λMax.absorption (H2 O)” value is reported as 754 nm and the “λMax.fluorescence (H2 O)” value is reported as 790 nm.
